The record followed here is US8999991B2, “Inhibitors of the renal outer medullary potassium channel” (Merck Sharp & Dohme Corp., priority 2011, dated 2015).

The test concerns the target T1, hROMK (hKir1.1) (Homo sapiens, UniProt P48048).
T1 construct: expressed in transfected cells; HEK-hKir1.1)
T1 sequence (P48048 1-391): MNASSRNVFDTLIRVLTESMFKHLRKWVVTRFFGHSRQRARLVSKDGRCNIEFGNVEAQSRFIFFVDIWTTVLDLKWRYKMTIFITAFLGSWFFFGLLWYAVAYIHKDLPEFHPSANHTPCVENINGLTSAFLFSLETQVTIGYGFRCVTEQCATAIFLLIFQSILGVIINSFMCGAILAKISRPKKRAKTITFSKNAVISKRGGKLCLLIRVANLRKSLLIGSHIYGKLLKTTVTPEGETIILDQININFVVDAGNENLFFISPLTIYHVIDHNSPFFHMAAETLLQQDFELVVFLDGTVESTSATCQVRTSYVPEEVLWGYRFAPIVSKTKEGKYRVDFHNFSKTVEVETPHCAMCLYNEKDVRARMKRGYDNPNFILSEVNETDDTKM
Put plainly: Thallium Flux Assay (ROMK channel functional thallium flux assay, FLIPR-Tetra, 384 wells). It is filed as cell-based. As to conditions: HEK293 cells stably expressing hROMK (hKir1.1); 30 min incubation with test compound. The procedure: The following Thallium Flux Assay was performed on the final product compounds in all the Examples. This assay makes use of the ability of thallium to permeate through open ROMK channels and increase the fluorescence of a dye previously loaded into the cells. Under control conditions, cells loaded with dye and exposed to thallium-containing medium display a time-dependent increase in fluorescence, the rate of which depends on number of functional channels. When cells are incubated in the presence of a channel inhibitor, the increase in fluorescence is attenuated in a concentration-dependent manner, and IC50 values of inhibition by compounds can be accurately determined. This assay has been established with cell lines expressing either human, or rat ROMK channels, and operates in 384-well format.
HEK293 cells stably expressing hROMK (hKir1.1) were grown at 37° C. in a 10% CO2 humidified incubator in complete growth media: Dulbecco's Modified Eagle Medium supplemented with non-essential amino acids, Penicillin/Streptomycin/Glutamine, G418 and FBS. At >80% confluency, aspirate the media from the flask and rinse with 10 mL Calcium/Magnesium-free PBS. Add 5 mL of 1× trypsin (prepared in Ca/Mg Free PBS) to T-225 flask and return flask to 37° C./CO2 incubator for 2-3 minutes. To dislodge the cell, gently bang the side of the flask with your hand. Triturate the cells completely and then transfer the cells to 25 mL complete media. Centrifuge at 1,500 rpm for 6 min followed by resuspension in complete growth media and determine cell concentration. For typical re-seeding, 4E6 cells/T-225 flask will attain >80% confluency in 4 days. Under ideal growth conditions and appropriate tissue culture practices, this cell line is stable for 40-45 passages.
• FluxOR™ Reagent (Component A) • FluxOR™ Assay Buffer (Component B)—10× Concentrate • PowerLoad™ Concentrate (Component C)—100× Concentrate • Probenecid (Component D)—Lyophilized sample is kept at −20° C. Water soluble, 100× after solubilization in 1 mL water. […] Store at 4° C. • Thallium sulfate (Tl2SO4) Concentrate (Component G)—50 mM in water. Store at 4° C. • DMSO (dimethyl sulfoxide, Component H)—1 mL (100%) Reagent Preparation: FluxOR Working Solutions • 1000× FluxOR™ Reagent: Reconstitute a vial of component A in 100 μl DMSO; Mix well; Store 10 μl aliquots at −20° C. • 1× FluxOR™ Assay Buffer: Dilute Component B 10-fold with water; Adjust pH to 7.4 with Hepes/NaOH; Filter and store at 4° C. • Probenecid/Assay Buffer: 100 mL of 1× FluxOR™ Assay Buffer; 1 mL of reconstituted component D; Store at 4° C. • Loading Buffer (per microplate): 10 μl 1000× FluxOR™ Reagent; 100 μl component C; 10 mL Probenecid/Assay Buffer • Compound Buffer (per microplate): 20 mL Probenecid/Assay Buffer; 0.3 mM ouabain (10 mM ouabain in water can be stored in amber bottle/aluminum foil at room temperature); Test compound • 1× FluxOR™ Chloride-Free Buffer: Prepare 1× working solution in water. Can be stored at room temperature • Stimulant Buffer (prepared at 5× final concentration in 1× FluxOR™ Chloride-Free Buffer): 7.5 mM Thallium sulfate and 0.75 mM Potassium sulfate (to give a final assay concentration of 3 mM Thallium/0.3 mM Potassium). Store at 4° C. when not in use. If kept sterile, this solution is good for months. Assay Protocol—
The ROMK channel functional thallium flux assay is performed in 384 wells, using the FLIPR-Tetra instrument. HEK-hKir1.1 cells are seeded in Poly-D-Lysine microplates and kept in a 37° C.-10% CO2 incubator overnight. On the day of the experiment, the growth media is replaced with the FluxOR™ reagent loading buffer and incubated, protected from light, at ambient temperature (23-25° C.) for 90 min. The loading buffer is replaced with assay buffer±test compound followed by 30 min incubation at ambient temperature, where the Thallium/Potassium stimulant is added to the microplate.
• 1. Seed HEK-hKir1.1 cells (50 μl at 20,000 cells/well) in 384-well PDL coated Microplates • 2. […]
Usually IC50 stands for the concentration that inhibits the measured activity by half. Take `Cc1c([C@@H](O)CN2CCN(c3nc4ccc(C#N)cc4s3)C(=O)C2)ccc2c1COC2=O` [Example 9, 2-{4-[(2R)-2-Hydroxy-2-(4-methyl-1-oxo-1,3-dihydro-2-benzofuran-5-yl)ethyl]-2-oxopiperazin-1-yl}-1,3-benzothiazole-6-carbonitrile]: the half-inhibitory concentration (IC50) was found to be 90 nM.
In the case of `Cc1c([C@@H](O)CN2CCN(c3ccc4cc(C#N)cnc4c3)C(=O)C2)ccc2c1COC2=O` [Example 10, 7-{4-[(2R)-2-Hydroxy-2-(4-methyl-1-oxo-1,3-dihydro-2-benzofuran-5-yl)ethyl]-2-oxopiperazin-1-yl}quinoline-3-carbonitrile] it was 210 nM; in that of `Cc1c([C@@H](O)CN2CCN(c3ccc4cc(C#N)sc4c3)C(=O)C2)ccc2c1COC2=O` [Example 14, 6-{4-[(2R)-2-Hydroxy-2-(4-methyl-1-oxo-1,3-dihydro-2-benzofuran-5-yl)ethyl]-2-oxopiperazin-1-yl}-1-benzothiophene-2-carbonitrile], 160 nM.
The molecule `Cc1cc2c(cc1C(O)CN1CCN(c3ccc4cc(C#N)ccc4c3)C(=O)C1)COC2=O` (racemic) [Example 3, 6-{4-[2-Hydroxy-2-(6-methyl-1-oxo-1,3-dihydro-2-benzofuran-5-yl)ethyl]-2-oxopiperazin-1-yl}naphthalene-2-carbonitrile] registered a half-inhibitory concentration (IC50) of 70 nM.
In the case of `Cc1c([C@@H](O)CN2CCN(c3ccc4cc(C#N)sc4n3)C(=O)C2)ccc2c1COC2=O` [Example 8, 6-{4-[(2R)-2-Hydroxy-2-(4-methyl-1-oxo-1,3-dihydro-2-benzofuran-5-yl)ethyl]-2-oxopiperazin-1-yl}thieno-[2,3-b]pyridine-2-carbonitrile] it was 160 nM; in that of `Cc1cc2nc(N3CCN(C[C@H](O)c4ccc5c(c4C)COC5=O)CC3=O)ccc2cc1C#N` [Example 12, 2-{4-[(2R)-2-Hydroxy-2-(4-methyl-1-oxo-1,3-dihydro-2-benzofuran-5-yl)ethyl]-2-oxopiperazin-1-yl}-7-methylquinoline-6-carbonitrile], 80 nM.
In the case of `N#Cc1ccc2cc(N3CCN(CCc4ccc5c(c4)COC5=O)CC3=O)ccc2c1` [Example 1, 6-{2-Oxo-4-[2-(1-oxo-1,3-dihydro-2-benzofuran-5-yl)ethyl]piperazin-1-yl}naphthalene-2-carbonitrile] it was 60 nM.
The molecule `Cc1c([C@@H](O)CN2CCN(c3cc4ccc(C#N)c(C)c4cn3)C(=O)C2)ccc2c1COC2=O` [Example 13, 3-{4-[(2R)-2-Hydroxy-2-(4-methyl-1-oxo-1,3-dihydro-2-benzofuran-5-yl)ethyl]-2-oxopiperazin-1-yl}-8-methylisoquinoline-7-carbonitrile] had a half-maximal inhibitory concentration (IC50) of 150 nM. Against the preceding molecule, the IC50 is about 2.5-fold higher.
`Cc1c([C@@H](O)CN2CCN(c3ccc4ccc(C#N)cc4c3)C(=O)C2)ccc2c1COC2=O` [Example 6, 7-{4-[(2R)-2-Hydroxy-2-(4-methyl-1-oxo-1,3-dihydro-2-benzofuran-5-yl)ethyl]-2-oxopiperazin-1-yl}naphthalene-2-carbonitrile] returned an IC50 of 90 nM.
With `Cc1c([C@@H](O)CN2CCN(c3nc4cc(C#N)ccc4s3)C(=O)C2)ccc2c1COC2=O` [Example 7, 2-{4-[(2R)-2-Hydroxy-2-(4-methyl-1-oxo-1,3-dihydro-2-benzofuran-5-yl)ethyl]-2-oxopiperazin-1-yl}-1,3-benzothiazole-5-carbonitrile] the figure was 40 nM.
`Cc1c([C@@H](O)CN2CCN(c3cc4ccc(C#N)cc4cn3)C(=O)C2)ccc2c1COC2=O` [Example 5, 3-{4-[(2R)-2-Hydroxy-2-(4-methyl-1-oxo-1,3-dihydro-2-benzofuran-5-yl)ethyl]-2-oxopiperazin-1-yl}isoquinoline-7-carbonitrile] showed an IC50 of 80 nM. This IC50 lies about 2-fold higher than the previous one.
In the case of `Cc1c([C@@H](O)CN2CCN(c3ccc4nc(S(C)(=O)=O)ccc4c3)C(=O)C2)ccc2c1COC2=O` [Example 15, 4-[(2R)-2-hydroxy-2-(4-methyl-1-oxo-1,3-dihydro-2-benzofuran-5-yl)ethyl]-1-[2-(methylsulfonyl)quinolin-6-yl]piperazin-2-one] it was 220 nM; in that of `Cc1c([C@@H](O)CN2CCN(c3ccc4cc(C#N)ccc4c3)C(=O)C2)ccc2c1COC2=O` [Example 2, 6-{4-[(2R)-2-Hydroxy-2-(4-methyl-1-oxo-1,3-dihydro-2-benzofuran-5-yl)ethyl]-2-oxopiperazin-1-yl}naphthalene-2-carbonitrile], 50 nM; in that of `Cc1c([C@@H](O)CN2CCN(c3cnc4cc(C#N)ccc4c3)C(=O)C2)ccc2c1COC2=O` [Example 11, 3-{4-[(2R)-2-Hydroxy-2-(4-methyl-1-oxo-1,3-dihydro-2-benzofuran-5-yl)ethyl]-2-oxopiperazin-1-yl}quinoline-7-carbonitrile], 140 nM.
